# Legend:
# HAP1 MTAP-intact = experiment: SDMA in-cell western assay, HAP1 MTAP-intact cell line; format: cell-based; conditions: Homo sapiens
# In short: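 HAP1 isogenic pair: endogenous MTAP vs MTAP-null. Readout SDMA by in-cell western; IC50 per line. Ratio ≥3 fold = MTAP-selective.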
# PRMT5 [1] = target: T1, PRMT5 (Homo sapiens, UniProt O14744); experiment: PRMT5 IC50 assay in the presence of MTA as cofactor; format: biochemical; conditions: for IC50: PRMT5, MTA as cofactor; for SAM/MTA Ratio: ratio between the Ki in the presence of SAM and the Ki in the presence of MTA
# T1 construct: purchased Viva (custom protein)
# T1 sequence (O14744 whole entry): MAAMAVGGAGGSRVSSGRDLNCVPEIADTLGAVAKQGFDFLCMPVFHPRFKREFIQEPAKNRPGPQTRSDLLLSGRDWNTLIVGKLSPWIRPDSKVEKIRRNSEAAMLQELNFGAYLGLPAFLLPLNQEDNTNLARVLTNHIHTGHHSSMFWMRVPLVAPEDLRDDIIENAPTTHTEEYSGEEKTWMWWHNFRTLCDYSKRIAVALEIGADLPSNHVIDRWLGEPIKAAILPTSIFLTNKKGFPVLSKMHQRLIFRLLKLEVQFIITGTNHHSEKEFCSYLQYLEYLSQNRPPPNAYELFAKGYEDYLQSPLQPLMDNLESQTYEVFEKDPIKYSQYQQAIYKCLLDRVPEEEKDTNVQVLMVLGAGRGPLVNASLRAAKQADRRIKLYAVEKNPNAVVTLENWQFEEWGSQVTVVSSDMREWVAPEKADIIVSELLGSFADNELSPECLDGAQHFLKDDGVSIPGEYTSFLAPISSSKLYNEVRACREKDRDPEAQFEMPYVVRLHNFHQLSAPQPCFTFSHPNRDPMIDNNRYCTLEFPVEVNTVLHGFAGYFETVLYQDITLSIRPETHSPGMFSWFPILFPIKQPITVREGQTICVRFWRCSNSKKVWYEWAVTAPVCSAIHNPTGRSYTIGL
# T1 sequence (Q9BQA1 whole entry partner): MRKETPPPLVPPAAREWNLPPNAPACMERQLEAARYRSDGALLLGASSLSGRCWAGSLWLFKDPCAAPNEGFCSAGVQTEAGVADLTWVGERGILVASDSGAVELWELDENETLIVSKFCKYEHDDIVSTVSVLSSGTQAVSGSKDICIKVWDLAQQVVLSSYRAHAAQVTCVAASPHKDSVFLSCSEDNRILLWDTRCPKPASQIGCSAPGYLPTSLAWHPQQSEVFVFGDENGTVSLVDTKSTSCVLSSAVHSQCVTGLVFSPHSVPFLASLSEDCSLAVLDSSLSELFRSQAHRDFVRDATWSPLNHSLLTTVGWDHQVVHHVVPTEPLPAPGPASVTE
# In short: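 MTA-dependent versus SAM-dependent inhibition of human PRMT5 was assessed by IC50; conversion factors of 13.5 and 1.5 gave the corresponding Ki.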
# HAP1 MTAP-deleted = experiment: SDMA in-cell western assay, HAP1 MTAP-deleted cell line; format: cell-based; conditions: for IC50: Homo sapiens, HAP1 MTAP-deleted cell line; for MTAP Intact/Deleted Ratio: IC50 ratio HAP1 MTAP-intact / HAP1 MTAP-deleted
# In short: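 IC50 from SDMA in-cell western; HAP1 line lacking MTAP (null), paired isogenically with MTAP-intact HAP1 expressing endogenous MTAP.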
# PRMT5 [2] = target: T1, PRMT5; experiment: PRMT5 IC50 assay with no cofactor; format: biochemical
# In short: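 For the SAM-containing format, dividing IC50 by 1.5 yields Ki; for the MTA-containing format the divisor is 13.5. A third format without cofactor gives IC50 alone.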
# PRMT5 [3] = target: T1, PRMT5; experiment: PRMT5 IC50 assay in the presence of SAM as cofactor; format: biochemical
# In short: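 Cofactor-free, SAM and MTA formats; IC50 μM; Ki = IC50/1.5 for SAM, IC50/13.5 for MTA.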
Compound,IC50 (HAP1 MTAP-intact),IC50 (PRMT5 [1]),IC50 (HAP1 MTAP-deleted),IC50 (PRMT5 [2]),IC50 (PRMT5 [3]),SAM/MTA Ratio (PRMT5 [1]),MTAP Intact/Deleted Ratio (HAP1 MTAP-deleted)
"CCN(C)c1cc(C(=O)NC[C@H](O)CN2CCc3c(ccc(OCc4cnco4)c3Cl)C2)cc(NC2CCC2)n1 [Compound 445, (S)—N-(3-(5-chloro-6-(oxazol-5-ylmethoxy)-3N-dihydroisoquinolin-2(1H)-yl)-2-hydroxypropyl)-2-(cyclobutylamino)-6-(ethyl(methyl)amino)isonicotinamide]",≥ 10000 nM,50 to 500 nM,≥ 10000 nM,≥ 5000 nM,500 to 5000 nM,A (a Ki ratio greater than or equal to 10 fold between the Ki in the presence of SAM and the Ki in the presence of MTA),C* (an IC50 ratio of less than 3 fold between the IC50 in the HAP1 MTAP-intact cell line and the HAP1 MTAP-deleted cell line)
"Cc1c(OCc2cnco2)ccc2c1CCN(C[C@@H](O)CNC(=O)c1ccnc(NC3CCN(C(=O)CC(C)C)CC3)c1)C2 [Compound 447, (S)—N-(2-hydroxy-3-(5-methyl-6-(oxazol-5-ylmethoxy)-3N-dihydroisoquinolin-2(1H)-yl)propyl)-2-((1-(3-methylbutanoyl)piperidin-4-yl)amino)isonicotinamide]",≥ 10000 nM,50 to 500 nM,< 1000 nM,500 to 5000 nM,50 to 500 nM,A (a Ki ratio greater than or equal to 10 fold between the Ki in the presence of SAM and the Ki in the presence of MTA),A* (an IC50 ratio greater than or equal to 10 fold between the IC50 in the HAP1 MTAP-intact cell line and the HAP1 MTAP-deleted cell line)
"O=C(NC[C@H](O)CN1CCc2cc(OCc3cnco3)ccc2C1)c1ccnc(NC2CCN(C(=O)C3CC3)CC2)c1 [Compound 450, 2-[[1-(cyclopropanecarbonyl)-4-piperidyl]amino]-N-[(2S)-2-hydroxy-3-[6-(oxazol-5-ylmethoxy)-3,4-dihydro-1H-isoquinolin-2-yl]propyl]pyridine-4-carboxamide]",≥ 10000 nM,50 to 500 nM,< 1000 nM,500 to 5000 nM,50 to 500 nM,A (a Ki ratio greater than or equal to 10 fold between the Ki in the presence of SAM and the Ki in the presence of MTA),A* (an IC50 ratio greater than or equal to 10 fold between the IC50 in the HAP1 MTAP-intact cell line and the HAP1 MTAP-deleted cell line)
CC(=O)N1CC(Nc2cc(C(=O)NC[C@H](O)CN3CCc4cc(OCc5cnco5)ccc4C3)ccn2)C1 [Compound 451],≥ 10000 nM,50 to 500 nM,≥ 10000 nM,500 to 5000 nM,50 to 500 nM,A (a Ki ratio greater than or equal to 10 fold between the Ki in the presence of SAM and the Ki in the presence of MTA),C* (an IC50 ratio of less than 3 fold between the IC50 in the HAP1 MTAP-intact cell line and the HAP1 MTAP-deleted cell line)
CC(C)C(=O)N1CCC(Nc2cc(C(=O)NC[C@H](O)CN3CCc4c(ccc(OCc5cnco5)c4Cl)C3)ccn2)CC1 [Compound 452],≥ 10000 nM,50 to 500 nM,1000 to 10000 nM,500 to 5000 nM,50 to 500 nM,A (a Ki ratio greater than or equal to 10 fold between the Ki in the presence of SAM and the Ki in the presence of MTA),B* (an IC50 ratio greater than or equal to 3 fold but lower than 10 fold between the IC50 in the HAP1 MTAP-intact cell line and the HAP1 MTAP-deleted cell line)

# More lines, main results first:
IC50 (HAP1 MTAP-intact),IC50 (PRMT5 [1]),IC50 (HAP1 MTAP-deleted),IC50 (PRMT5 [2]),IC50 (PRMT5 [3]),Compound,SAM/MTA Ratio (PRMT5 [1]),MTAP Intact/Deleted Ratio (HAP1 MTAP-deleted)
≥ 10000 nM,50 to 500 nM,< 1000 nM,500 to 5000 nM,50 to 500 nM,"CCCC(=O)N1CCC(Nc2cc(C(=O)NC[C@H](O)CN3CCc4c(ccc(OCc5cnco5)c4Cl)C3)ccn2)CC1 [Compound 442, (S)-2-((1-butyrylpiperidin-4-yl)amino)-N-(3-(5-chloro-6-(oxazol-5-ylmethoxy)-3,4-dihydroisoquinolin-2(1H)-yl)-2-hydroxypropyl)isonicotinamide]",A (a Ki ratio greater than or equal to 10 fold between the Ki in the presence of SAM and the Ki in the presence of MTA),A* (an IC50 ratio greater than or equal to 10 fold between the IC50 in the HAP1 MTAP-intact cell line and the HAP1 MTAP-deleted cell line)
≥ 10000 nM,50 to 500 nM,< 1000 nM,500 to 5000 nM,50 to 500 nM,"CC(C)CC(=O)N1CCC(Nc2cc(C(=O)NC[C@H](O)CN3CCc4c(ccc(OCc5cnco5)c4Cl)C3)ccn2)CC1 [Compound 443, (S)—N-(3-(5-chloro-6-(oxazol-5-ylmethoxy)-3N-dihydroisoquinolin-2(1H)-yl)-2-hydroxypropyl)-2-((1-(3-methylbutanoyl)piperidin-4-yl)amino)isonicotinamide]",A (a Ki ratio greater than or equal to 10 fold between the Ki in the presence of SAM and the Ki in the presence of MTA),A* (an IC50 ratio greater than or equal to 10 fold between the IC50 in the HAP1 MTAP-intact cell line and the HAP1 MTAP-deleted cell line)
≥ 10000 nM,50 to 500 nM,1000 to 10000 nM,≥ 5000 nM,50 to 500 nM,"Cc1ncoc1COc1ccc2c(c1C)CCN(C[C@@H](O)CNC(=O)c1cc(NC3COC3)nc(N3CCN(C(C)C)CC3)n1)C2 [Compound 444, N-[(2S)-2-hydroxy-3-{5-methyl-6-[(4-methyl-1,3-oxazol-5-yl)methoxy]-1,2,3,4-tetrahydroisoquinolin-2-yl}propyl]-6-[(oxetan-3-yl)amino]-2-[4-(propan-2-yl)piperazin-1-yl]pyrimidine-4-carboxamide]",A (a Ki ratio greater than or equal to 10 fold between the Ki in the presence of SAM and the Ki in the presence of MTA),C* (an IC50 ratio of less than 3 fold between the IC50 in the HAP1 MTAP-intact cell line and the HAP1 MTAP-deleted cell line)
1000 to 10000 nM,< 50 nM,< 1000 nM,500 to 5000 nM,50 to 500 nM,"CC(C)CC(=O)N1CCC(Nc2cc(C(=O)NC[C@H](O)CN3CCc4cc(OCc5cnco5)ccc4C3)ccn2)CC1 [Compound 446, N-[(2S)-2-hydroxy-3-[6-(oxazol-5-ylmethoxy)-3,4-dihydro-1H-isoquinolin-2-yl]propyl]-2-[[1-(3-methylbutanoyl)-4-piperidyl]amino]pyridine-4-carboxamide]",A (a Ki ratio greater than or equal to 10 fold between the Ki in the presence of SAM and the Ki in the presence of MTA),C* (an IC50 ratio of less than 3 fold between the IC50 in the HAP1 MTAP-intact cell line and the HAP1 MTAP-deleted cell line)
< 1000 nM,50 to 500 nM,< 1000 nM,500 to 5000 nM,50 to 500 nM,CN1CCN(c2cc(C(=O)NC[C@H](O)CN3CCc4cc(OCc5cnco5)ccc4C3)cc(NC3CCC3)n2)CC1 [Compound 448],A (a Ki ratio greater than or equal to 10 fold between the Ki in the presence of SAM and the Ki in the presence of MTA),C* (an IC50 ratio of less than 3 fold between the IC50 in the HAP1 MTAP-intact cell line and the HAP1 MTAP-deleted cell line)
1000 to 10000 nM,50 to 500 nM,< 1000 nM,500 to 5000 nM,50 to 500 nM,"CC(C)(C)C(=O)N1CCC(Nc2cc(C(=O)NC[C@H](O)CN3CCc4cc(OCc5cnco5)ccc4C3)ccn2)CC1 [Compound 449, 2-[[1-(2,2-dimethylpropanoyl)-4-piperidyl]amino]-N-[(2S)-2-hydroxy-3-[6-(oxazol-5-ylmethoxy)-3,4-dihydro-1H-isoquinolin-2-yl]propyl]pyridine-4-carboxamide]",A (a Ki ratio greater than or equal to 10 fold between the Ki in the presence of SAM and the Ki in the presence of MTA),C* (an IC50 ratio of less than 3 fold between the IC50 in the HAP1 MTAP-intact cell line and the HAP1 MTAP-deleted cell line)
1000 to 10000 nM,50 to 500 nM,< 1000 nM,500 to 5000 nM,50 to 500 nM,"Cc1ncoc1COc1ccc2c(c1)CCN(C[C@@H](O)CNC(=O)c1cc(NC3COC3)nc(N3CCN(C(=O)C(C)C)CC3)n1)C2 [Compound 454, N-[(2S)-2-hydroxy-3-{6-[(4-methyl-1,3-oxazol-5-yl)methoxy]-1,2,3,4-tetrahydroisoquinolin-2-yl}propyl]-2-[4-(2-methylpropanoyl)piperazin-1-yl]-6-[(oxetan-3-yl)amino]pyrimidine-4-carboxamide]",A (a Ki ratio greater than or equal to 10 fold between the Ki in the presence of SAM and the Ki in the presence of MTA),B* (an IC50 ratio greater than or equal to 3 fold but lower than 10 fold between the IC50 in the HAP1 MTAP-intact cell line and the HAP1 MTAP-deleted cell line)

# Reference: patent publication US11986471B2, “Compounds and methods of use” (Tango Therapeutics, Inc., priority 2018, dated 2024)
